# From patent publication US6803484B2, “Sulfonamide derivatives” (Eli Lilly and Company, priority 2000, dated 2004)
# Experiment: Determination of plasma exposure of test compounds in rats (LC/MS of plasma after oral dosing)
# Format: in vivo, rat (male F-344)
# Settings: for AUC / Cmax / Tmax: male, F-344, rat, rats, oral administration of a 30 mg/kg dose; for AUC: n = 3, read-out: AUC (area under the curve); for Cmax: n = 3, read-out: Cmax (maximum concentration of test compound); for Tmax: n = 3, read-out: tmax (time at which maximum concentration resulted); for concentration at 0.5 h / concentration at 1 h / concentration at 2 h / concentration at 6 h: rat, male F-344 rats, 30 mg/kg oral by gavage, suspension, n = 3
# Method: General Procedure for Determination of Plasma Exposure of Test Compounds in Rats
# Each compound was administered as a suspension in a vehicle consisting of 5% ethanol, 95% of a mixture of 0.5% each Polysorbate 80/sodium carboxymethylcellulose in water. Three male F-344 rats were dosed orally at 30 mg/kg by gavage and blood collected by orbital venapuncture under isoflurane anesthesia at 0.5, 1, and 2 hours after dosing into sodium heparinized containers. The final 6 hour timepoint was collected by cardiac puncture into sodium heparinized containers. Plasma was collected after brief centrifugation and frozen at −70° C. until assay. Plasma samples were assayed by LC/MS using standards prepared by spiking plasma with the compound of interest.
AUC [ng·h/mL],Cmax [ng/mL],Tmax [min],concentration at 0.5 h [ng/mL],concentration at 1 h [ng/mL],concentration at 2 h [ng/mL],concentration at 6 h [ng/mL],SMILES
1440 ± 227,473,30,473 ± 100,333 ± 53,329 ± 62,67 ± 17,"CC(CNS(=O)(=O)C(C)C)c1ccc(NC(=O)c2ccc(F)cc2F)cc1 (centres unmarked) [Compound A, N-[4-(1-methyl-2-{[(methylethyl)sulfonyl]amino}ethyl)phenyl](2,4-difluorophenyl)carboxamide]"
5596 ± 14,1490,30,1491 ± 12,1170 ± 134,1040 ± 62,693 ± 136,"CC(C)S(=O)(=O)NC[C@H](C)c1ccc(NC(=O)c2cc(F)cc(F)c2)cc1 [Compound B, N-[4-((1R)-1-methyl-2-{[(methylethyl)sulfonyl]amino}ethyl)phenyl](3,5-difluorophenyl)carboxamide]"
